Some test systems named below: IGROV1 ovarian; SF-268 CNS; HL-60(TB) leukemia; SK-MEL-2 melanoma; OVCAR-4 ovarian; SF-539 CNS; NCI-H23 lung; MDA-MB-435; DU-145 prostate; PC-3 prostate.
Assay in all cases: NCI tumour cell line growth inhibition, 48 h

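Each compound was tested at five concentrations against cells in 96-well plates for 48 hours. At the GI50, growth is halved. TGI: concentration producing complete growth inhibition.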 A value given as a limit tells only on which side of the number the result lay.

As for `CC(C)(C)c1cc(-c2c3nc(c(-c4cc(C(C)(C)C)cc(C(C)(C)C)c4)c4ccc([nH]4)c(-c4cc(C(C)(C)C)cc(C(C)(C)C)c4)c4nc(c(-c5cc(C(C)(C)C)cc(C(C)(C)C)c5)c5ccc2[nH]5)C=C4)C=C3)cc(C(C)(C)C)c1`, the TGI in the test with IGROV1 ovarian, in the test with SF-268 CNS, with HL-60(TB) leukemia, with SK-MEL-2 melanoma, in the test on OVCAR-4 ovarian and with SF-539 CNS was above 100 µM each time. In the test on NCI-H23 lung, this compound yielded a TGI above 100 µM.

Take `NC1=NCC(c2ccccn2)C1c1ccc(F)cc1` (configuration not stated): the TGI with IGROV1 ovarian, with SF-268 CNS, with SK-MEL-2 melanoma, with OVCAR-4 ovarian, with SF-539 CNS and with NCI-H23 lung was above 100 µM throughout.

For the compound `O=C1C(CO)=C[C@@H](O)[C@H]2O[C@@H]12`, the TGI was above 100 µM in the test with IGROV1 ovarian; 78.6 µM in the test on MDA-MB-435; above 100 µM in the test on SF-268 CNS; above 100 µM in the test with DU-145 prostate; above 100 µM with HL-60(TB) leukemia; above 100 µM in the test with SK-MEL-2 melanoma. Also, the TGI with OVCAR-4 ovarian is 53.4 µM; in the test with NCI-H23 lung it was above 100 µM.

In the case of `C/C=C/C=C/CCCCCCCCCCCCC[C@]1(OC)C=CC(CC(=O)OC)OO1` (some centres not stated), the figures for the GI50 in the test on IGROV1 ovarian, in the test on OVCAR-4 ovarian and in the test with NCI-H23 lung were 5.61 µM, 12.5 µM and 19.1 µM, respectively. Also, the TGI with IGROV1 ovarian came to 20 µM; in the test on SF-268 CNS, 46.4 µM; in the test with SK-MEL-2 melanoma, 69.5 µM; in the test on OVCAR-4 ovarian, 25.9 µM; in the test on SF-539 CNS it was 35.3 µM; with NCI-H23 lung it was 36.8 µM.

In the case of `COc1ccc(/C(=C\c2cc(OC)c(OC)c(OC)c2)C(=O)O)cc1`, the TGI with IGROV1 ovarian was above 100 µM; in the test with SF-268 CNS, above 100 µM; in the test on HL-60(TB) leukemia, 72.3 µM; in the test with OVCAR-4 ovarian, above 100 µM; in the test on SF-539 CNS, 39 µM.

As for `C=CCN(N=O)C(=O)N(CCCCC(NC(C)=O)C(=O)NCc1ccccc1)Cc1ccccc1` (configuration not stated), the TGI in the test with IGROV1 ovarian is above 100 µM; in the test on SF-268 CNS it was above 100 µM; in the test with HL-60(TB) leukemia, 43.5 µM; in the test with SK-MEL-2 melanoma it was above 100 µM; in the test with OVCAR-4 ovarian, above 100 µM; with SF-539 CNS it was above 100 µM. In addition, in the test with NCI-H23 lung, the TGI was above 100 µM.

Turning to `COC(=O)[C@@H]1[C@H](O)[C@H](C)[C@H](O)[C@H](C)/C=C\C=C(C)C(=O)Nc2c(C)c(OC(C)=O)c3c(c2O)C(=O)C(C)=C2OCOC(=C23)C(C)=C[C@@](C)(O)[C@H](O)[C@@H](C)[C@H]1OC(C)=O`, the TGI with IGROV1 ovarian is above 100 µM; in the test on SF-268 CNS, above 100 µM; in the test on DU-145 prostate it was above 100 µM; in the test on HL-60(TB) leukemia, 34 µM; in the test with OVCAR-4 ovarian, above 100 µM; in the test with PC-3 prostate, above 100 µM. The compound also had a TGI with NCI-H23 lung above 100 µM.

For `Cc1ccccc1NC(=O)C(=O)CC(=O)C1CCOC1=O` (configuration not stated), the TGI in the test on IGROV1 ovarian, with SF-268 CNS, with HL-60(TB) leukemia, with SK-MEL-2 melanoma, in the test with OVCAR-4 ovarian and with SF-539 CNS was above 100 µM throughout. The TGI in the test with NCI-H23 lung was above 100 µM.

With `COc1cc(/C=C2\NC(=S)C3Cc4c(OC)c(C)c(OC)c(OC)c4C2N3C)c(OC)c(C)c1OC` (configuration not stated), the TGI is above 100 µM in the test on IGROV1 ovarian; above 100 µM in the test on SF-268 CNS; 67.6 µM in the test with HL-60(TB) leukemia; above 100 µM with SK-MEL-2 melanoma; above 100 µM in the test with OVCAR-4 ovarian; above 100 µM with SF-539 CNS. In addition, the TGI in the test with NCI-H23 lung is above 100 µM.

Regarding `COC1C(O)CC(OC2CC(OC3CC(O[C@@H]4C(=O)c5c(cc6cc(OC7CC(OC8CC(O)C(O)C(C)O8)C(O)C(C)O7)c(C)c(O)c6c5O)C[C@H]4[C@H](OC)C(=O)[C@@H](O)[C@@H](C)O)OC(C)C3O)OC(C)C2O)OC1C` (some centres not stated), the GI50 with IGROV1 ovarian was 0.0363 µM; in the test on HL-60(TB) leukemia, below 0.0215 µM; in the test on NCI-H23 lung, below 0.0189 µM. Moreover, the TGI is above 100 µM in the test on IGROV1 ovarian; above 94 µM with SF-268 CNS; 0.281 µM in the test on DU-145 prostate; 1.57 µM in the test on HL-60(TB) leukemia; below 0.0205 µM in the test with SK-MEL-2 melanoma; above 100 µM with OVCAR-4 ovarian. Also, the TGI with SF-539 CNS was 0.0312 µM; with NCI-H23 lung, below 0.0442 µM.

Turning to `COC(=O)c1ccc(NC(N)=NCC(C)(C)COc2ccc(C(F)(F)F)cc2)nc1`, the GI50 in the test on DU-145 prostate was 1.7 µM; with HL-60(TB) leukemia, 1.79 µM; with SK-MEL-2 melanoma it was 1.86 µM; in the test with PC-3 prostate it was 1.38 µM; in the test on SF-539 CNS, 1.71 µM; in the test on NCI-H23 lung it was 1.45 µM. The TGI was 3.2 µM in the test with DU-145 prostate; 3.56 µM in the test with HL-60(TB) leukemia; 3.47 µM in the test with SK-MEL-2 melanoma; 2.75 µM in the test with PC-3 prostate; 3.13 µM with SF-539 CNS; 3.09 µM with NCI-H23 lung.

For the compound `CN(C)CCC(/C=C/c1ccccc1)=N\Nc1ccc(Cl)cc1`, the TGI was 7.53 µM in the test on IGROV1 ovarian; 6.56 µM in the test with SF-268 CNS; 5.32 µM in the test on HL-60(TB) leukemia; 4.4 µM in the test on SK-MEL-2 melanoma; 21.7 µM in the test on OVCAR-4 ovarian; 5.32 µM with SF-539 CNS. The TGI with NCI-H23 lung is 20.9 µM.

For the compound `Cc1cc(Cl)ccc1N1C(=O)C(=O)C(c2nc3ccccc3o2)C(=O)C1=O`, the TGI with IGROV1 ovarian, in the test on SF-268 CNS, in the test on HL-60(TB) leukemia, with SK-MEL-2 melanoma, in the test on OVCAR-4 ovarian and in the test on SF-539 CNS was above 100 µM each time. The compound further returned a TGI in the test on NCI-H23 lung above 100 µM.

As to `Cc1nnc2n1N=C(c1ccc(-c3ccc([N+](=O)[O-])cc3)o1)CS2`, the TGI in the test with IGROV1 ovarian, with SF-268 CNS, in the test with HL-60(TB) leukemia, in the test on SK-MEL-2 melanoma, in the test on OVCAR-4 ovarian and in the test on SF-539 CNS was above 100 µM in each case. The same compound yielded a TGI with NCI-H23 lung above 100 µM.

The record behind these values is PubChem BioAssay (NCI).
